Reference: patent US20070117743A1, “New antitumoral compounds” (priority 2003, published 2007)

What was measured:
Assay type in all cases: cell-based, human
A-549 = experiment: SRB colorimetric assay of cell growth and viability, A-549; conditions: 48 hours exposure, SRB; for GI50: read-out: GI50 A-549; for CC50: read-out: LC50 A-549
LoVo-Dox = experiment: SRB colorimetric assay of cell growth and viability, LoVo-Dox; conditions: 48 hours exposure, SRB; for CC50: read-out: LC50 LOVO-DOX
Procedure, shortened: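 Cells in RPMI 1640 with 10% FBS were seeded at 5×10^3 per well and left 18 hours drug-free before compounds (10 to 10^−8 μg/mL in DMSO:EtOH:PBS 0.5:0.5:99) were added for 48 hours. TCA-fixed cells were stained with SRB and read at 490 nm; triplicate wells gave GI, TGI and LC.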

SK-MEL-28 = experiment: SRB colorimetric assay of cell growth and viability, SK-MEL-28; conditions: 48 hours exposure, SRB; for CC50: read-out: LC50 MEL-28
SK-BR-3 = experiment: SRB colorimetric assay of cell growth and viability, SK-BR-3; conditions: 48 hours exposure, SRB
HeLa = experiment: SRB colorimetric assay of cell growth and viability, HeLa; conditions: 48 hours exposure, SRB; for CC50: read-out: LC50 HELA
HT-29 = experiment: SRB colorimetric assay of cell growth and viability, HT-29; conditions: 48 hours exposure, SRB; for GI50: read-out: GI50 HT-29; for CC50: read-out: LC50 HT-29
HeLa-APL = experiment: SRB colorimetric assay of cell growth and viability, HeLa-APL; conditions: 48 hours exposure, SRB; for CC50: read-out: LC50 HELA-APL
PANC-1 = experiment: SRB colorimetric assay of cell growth and viability, PANC-1; conditions: 48 hours exposure, SRB; for CC50: read-out: LC50 PANC-1
LoVo = experiment: SRB colorimetric assay of cell growth and viability, LoVo; conditions: 48 hours exposure, SRB; for CC50: read-out: LC50 LOVO
DU-145 = experiment: SRB colorimetric assay of cell growth and viability, DU-145; conditions: 48 hours exposure, SRB
IGROV-1 = experiment: SRB colorimetric assay of cell growth and viability, IGROV-1; conditions: 48 hours exposure, SRB
IGROV-ET = experiment: SRB colorimetric assay of cell growth and viability, IGROV-ET; conditions: 48 hours exposure, SRB; for CC50: read-out: LC50 IGROV-ET
LNCaP = experiment: SRB colorimetric assay of cell growth and viability, LNCaP; conditions: 48 hours exposure, SRB; for GI50: read-out: GI50 LN-caP; for CC50: read-out: LC50 LN-caP

Compound	TGI A-549 (A-549) [Molar]	GI50 (A-549) [nM]	CC50 (A-549) [nM]	GI50 (LoVo-Dox) [nM]	TGI LOVO-DOX (LoVo-Dox) [Molar]	CC50 (LoVo-Dox) [nM]	GI50 (SK-MEL-28) [nM]	TGI MEL-28 (SK-MEL-28) [Molar]	CC50 (SK-MEL-28) [nM]	GI50 (SK-BR-3) [nM]	LC50 (SK-BR-3) [nM]	TGI SK-BR-3 (SK-BR-3) [Molar]	GI50 (HeLa) [nM]	TGI HELA (HeLa) [Molar]	TGI HT-29 (HT-29) [Molar]	GI50 (HT-29) [nM]	CC50 (HT-29) [nM]	GI50 (HeLa-APL) [nM]	TGI HELA-APL (HeLa-APL) [Molar]	CC50 (HeLa-APL) [nM]	other results
C/C=C1\NC(=O)[C@H](Cc2ccc(F)cc2)NC(=O)[C@@H](C(C)C)NC(=O)[C@@H]([C@@H](C)CC)NC(=O)[C@H](NC(=O)[C@H](NC(=O)[C@H](CCCN)NC(=O)[C@H]2CCCN2C(=O)[C@H](NC(=O)[C@@H](NC(=O)[C@@H](NC(=O)[C@H](NC(=O)CC[C@@H](C)CC)C(C)C)[C@@H](C)O)C(C)C)C(C)C)[C@@H](C)CC)[C@@H](C)OC(=O)[C@H](C(C)C)NC1=O [Compound 74, [Phe(4-F)^3, (4S)-MeHex^14]-KF]	1.76E−06	956	3230	153	3.09E−07	624	829	1.64E−06	3230	213	495	3.24E−07	214	3.78E−07	2.61E−07	137	499	675	1.46E−06	3150	GI50 (PANC-1): 1080 nM; TGI PANC-1 (PANC-1): 1.98E−06 Molar; CC50 (PANC-1): 3600 nM; GI50 (LoVo): 139 nM; TGI LOVO (LoVo): 2.35E−07 Molar; CC50 (LoVo): 395 nM; GI50 (DU-145): 796 nM; LC50 (concentration causing 50% net cell kill) (DU-145): 3250 nM; TGI DU-145 (DU-145): 1.61E−06 Molar; GI50 (IGROV-1): 206 nM; LC50 (concentration causing 50% net cell killing) (IGROV-1): 943 nM; TGI IGROV (IGROV-1): 3.88E−07 Molar; GI50 (IGROV-ET): 212 nM; TGI IGROV-ET (IGROV-ET): 3.18E−07 Molar; CC50 (IGROV-ET): 477 nM; TGI LN-caP (LNCaP): 1.02E−06 Molar; GI50 (LNCaP): 402 nM; CC50 (LNCaP): 2590 nM
C/C=C1\NC(=O)[C@H](Cc2ccc(Cl)c(Cl)c2)NC(=O)[C@@H](C(C)C)NC(=O)[C@@H]([C@@H](C)CC)NC(=O)[C@H](NC(=O)[C@H](NC(=O)[C@H](CCCN)NC(=O)[C@H]2CCCN2C(=O)[C@H](NC(=O)[C@@H](NC(=O)[C@@H](NC(=O)[C@H](NC(=O)CC[C@@H](C)CC)C(C)C)[C@@H](C)O)C(C)C)C(C)C)[C@@H](C)CC)[C@@H](C)OC(=O)[C@H](C(C)C)NC1=O [Compound 70, [Phe(3,4-Cl2)^3, (4S)-MeHex^14]-KF]	3.32E−07	183	604	28.5	8.15E−08	612	120	2.39E−07	475	52.8	299	1.18E−08	125	2.22E−07	2.13E−07	111	412	259	7.63E−07	2240	CC50 (HeLa): 397 nM; GI50 (PANC-1): 1000 nM; TGI PANC-1 (PANC-1): 1.85E−06 Molar; CC50 (PANC-1): 3420 nM; GI50 (LoVo): 68.5 nM; TGI LOVO (LoVo): 4.11E−07 Molar; CC50 (LoVo): 1730 nM; GI50 (DU-145): 142 nM; LC50 (concentration causing 50% net cell kill) (DU-145): 465 nM; TGI DU-145 (DU-145): 2.57E−07 Molar; GI50 (IGROV-1): 182 nM; LC50 (concentration causing 50% net cell killing) (IGROV-1): 487 nM; TGI IGROV (IGROV-1): 2.97E−07 Molar; GI50 (IGROV-ET): 112 nM; TGI IGROV-ET (IGROV-ET): 2.09E−07 Molar; CC50 (IGROV-ET): 387 nM; TGI LN-caP (LNCaP): 2.08E−07 Molar; GI50 (LNCaP): 66.6 nM; CC50 (LNCaP): 6470 nM
C/C=C1\NC(=O)[C@H](Cc2c(F)c(F)c(F)c(F)c2F)NC(=O)[C@@H](C(C)C)NC(=O)[C@@H]([C@@H](C)CC)NC(=O)[C@H](NC(=O)[C@H](NC(=O)[C@H](CCCN)NC(=O)[C@H]2CCCN2C(=O)[C@H](NC(=O)[C@@H](NC(=O)[C@@H](NC(=O)[C@H](NC(=O)CC[C@@H](C)CC)C(C)C)[C@@H](C)O)C(C)C)C(C)C)[C@@H](C)CC)[C@@H](C)OC(=O)[C@H](C(C)C)NC1=O [Compound 71, [Phe(F5)^3, (4S)-MeHex^14]-KF]	2.62E−06	1750	3920	184	2.90E−07	456	1520	2.40E−06	3800	228	554	3.56E−07	836	1.63E−06	9.82E−07	330	267	1330	2.22E−06	3700	CC50 (HeLa): 3160 nM; GI50 (PANC-1): 1560 nM; TGI PANC-1 (PANC-1): 4.41E−06 Molar; CC50 (PANC-1): 6380 nM; GI50 (LoVo): 166 nM; TGI LOVO (LoVo): 2.77E−07 Molar; CC50 (LoVo): 462 nM; GI50 (DU-145): 1220 nM; LC50 (concentration causing 50% net cell kill) (DU-145): 3640 nM; TGI DU-145 (DU-145): 2.11E−06 Molar; GI50 (IGROV-1): 526 nM; LC50 (concentration causing 50% net cell killing) (IGROV-1): 2720 nM; TGI IGROV (IGROV-1): 1.21E−06 Molar; GI50 (IGROV-ET): 443 nM; TGI IGROV-ET (IGROV-ET): 5.35E−07 Molar; CC50 (IGROV-ET): 848 nM; TGI LN-caP (LNCaP): 1.12E−06 Molar; GI50 (LNCaP): 394 nM; CC50 (LNCaP): 2700 nM
C/C=C1\NC(=O)[C@H](Cc2ccc(I)cc2)NC(=O)[C@@H](C(C)C)NC(=O)[C@@H]([C@@H](C)CC)NC(=O)[C@H](NC(=O)[C@H](NC(=O)[C@H](CCCN)NC(=O)[C@H]2CCCN2C(=O)[C@H](NC(=O)[C@@H](NC(=O)[C@@H](NC(=O)[C@H](NC(=O)CC[C@@H](C)CC)C(C)C)[C@@H](C)O)C(C)C)C(C)C)[C@@H](C)CC)[C@@H](C)OC(=O)[C@H](C(C)C)NC1=O [Compound 72, [Phe(4-I)^3, (4S)-MeHex^14]-KF]	3.47E−07	214	559	49.8	1.23E−07	274	190	4.05E−07	1200	125	416	2.28E−07	133	2.24E−07	2.30E−07	120	441	287	7.73E−07	2280	CC50 (HeLa): 379 nM; GI50 (PANC-1): 885 nM; TGI PANC-1 (PANC-1): 1.68E−06 Molar; CC50 (PANC-1): 3200 nM; GI50 (LoVo): 129 nM; TGI LOVO (LoVo): 2.35E−07 Molar; CC50 (LoVo): 428 nM; GI50 (DU-145): 132 nM; LC50 (concentration causing 50% net cell kill) (DU-145): 425 nM; TGI DU-145 (DU-145): 2.37E−07 Molar; GI50 (IGROV-1): 170 nM; LC50 (concentration causing 50% net cell killing) (IGROV-1): 443 nM; TGI IGROV (IGROV-1): 2.74E−07 Molar; GI50 (IGROV-ET): 259 nM; TGI IGROV-ET (IGROV-ET): 3.84E−07 Molar; CC50 (IGROV-ET): 570 nM; TGI LN-caP (LNCaP): 8.42E−07 Molar; GI50 (LNCaP): 270 nM; CC50 (LNCaP): 2380 nM
C/C=C1\NC(=O)[C@H](Cc2ccc([N+](=O)[O-])cc2)NC(=O)[C@@H](C(C)C)NC(=O)[C@@H]([C@@H](C)CC)NC(=O)[C@H](NC(=O)[C@H](NC(=O)[C@H](CCCN)NC(=O)[C@H]2CCCN2C(=O)[C@H](NC(=O)[C@@H](NC(=O)[C@@H](NC(=O)[C@H](NC(=O)CC[C@@H](C)CC)C(C)C)[C@@H](C)O)C(C)C)C(C)C)[C@@H](C)CC)[C@@H](C)OC(=O)[C@H](C(C)C)NC1=O [Compound 73, [Phe(4-NO2)^3, (4S)-MeHex^14]-KF]	1.24E−06	532	2760	33.5	9.46E−08	255	223	4.71E−07	1480	150	574	2.94E−07	173	2.80E−07	2.32E−07	127	426	521	1.30E−06	2950	CC50 (HeLa): 450 nM; GI50 (PANC-1): 952 nM; TGI PANC-1 (PANC-1): 1.85E−06 Molar; CC50 (PANC-1): 3580 nM; GI50 (LoVo): 112 nM; TGI LOVO (LoVo): 2.04E−07 Molar; CC50 (LoVo): 372 nM; GI50 (DU-145): 233 nM; LC50 (concentration causing 50% net cell kill) (DU-145): 2040 nM; TGI DU-145 (DU-145): 6.57E−07 Molar; GI50 (IGROV-1): 173 nM; LC50 (concentration causing 50% net cell killing) (IGROV-1): 488 nM; TGI IGROV (IGROV-1): 2.90E−07 Molar; GI50 (IGROV-ET): 229 nM; TGI IGROV-ET (IGROV-ET): 3.26E−07 Molar; CC50 (IGROV-ET): 467 nM; TGI LN-caP (LNCaP): 8.41E−07 Molar; GI50 (LNCaP): 377 nM; CC50 (LNCaP): 2320 nM
